According to patent US7750049B2, “O-substituted-dibenzyl urea-derivatives as TRPV1 receptor antagonists” (Pharmeste S.R.L., priority 2006, dated 2010):

Legend:
[1] = Cytotoxicity on Hep G2 cells; type: cell-based; conditions: human
Procedure: (§1) LogD Values at pH=7.0 were calculated in silico, while the in vitro tests analysed: • metabolic stability in cryopreserved human hepatocytes; • cytotoxicity on Hep G2 cells; • cassette pharmacokinetics in rat.
The cells were cultured for 3 days, trypsinized and re-suspended in 20 ml of culture medium. The cells were then counted and diluted to obtain a final concentration suitable for seeding 40.000 cells/well in 96-well cell culture plates (200 μl/well).
The cells were seeded in columns 1 to 11 (column 12 contained medium without cells), then placed for 16-24 hours at 37° C. with 5% of CO2.

[2] = value from Ref. 8 (Rami et al. 2006); cited from earlier work
[3] = target: T1, TRPV1 (Rattus norvegicus, UniProt O35433); assay: Ca2+ fluorescence measurements in cultured rat trigeminal ganglia (capsaicin-evoked [Ca2+]i mobilization); type: cell-based; conditions: 30 nM capsaicin, rat trigeminal neuron cells; read-out: IC50 of inhibiting capsaicin-evoked [Ca2+]i mobilization
T1 construct: Ca^2+ Fluorescence Measurements in Cultured Rat Trigeminal Ganglia; endogenous in cells; host or cells: cultured rat trigeminal ganglion neurons (primary culture)
Procedure: The calibration curve was determined using a buffer containing Fura-2-AM-ester and definite concentrations of free Ca^2+. This curve was then used to convert the data obtained from F340/F380 ratio to [Ca^2+]i (nM) (Kudo, Y). The effects of pretreatments with compounds 6a-6m on the increase in [Ca^2]i produced by 30 nM capsaicin were studied.
Capsaicin (30 nM) increased [Ca^2+]i in the vast majority (95%) of rat trigeminal neuron cells, which were therefore identified as TRPV1-expressing neurons.

[4] = Preliminary cassette pharmacokinetic study in catheterized conscious rats; type: in vivo; conditions: plasma; rat, oral, cassette dosing; read-out: Pharmacokinetics in Rat Oral t1/2
Procedure: as §1
Compounds were administered together to rats. The compounds were stored at −20° C. when not used. The formulation, route of administration, plasma samples identification and pharmacokinetic analysis were performed according to standard protocols (Raynaud, F I et al, 2004; Manitpisitkul, P. et al., 2004; Singh S. et al., 2006).

[5] = tested on: capsaicin-induced secondary allodynia; assay: Capsaicin-induced secondary allodynia in rat; type: in vivo; conditions: 30 μmol/kg p.o., 2 hours prior to capsaicin, 90 min after capsaicin challenge
Procedure: Capsaicin (5 nmols/50 μl/paw) was injected in the plantar surface of the glabrous skin of the right paw of rats anesthetized with diethyl ether (Chaplan et al., 1994). Compounds 6c and 6d were orally administrated 2 hours prior to capsaicin injection. Tactile allodynia was evaluated 90 min after capsaicin challenge. In a more extended study, compounds 6c and 6d were tested against capsaicin-induced secondary allodynia in rats.

[6] = target: T2, vanilloid TRPV1 receptor (Rattus norvegicus, UniProt O35433); assay: [3H]RTX radioligand binding assay in rat spinal cord membranes; conditions: displacement of [3H]RTX (0.4 nM), 37° C., 60 min
T2 construct: the spinal cord was removed and disrupted using a Polytron tissue homogenizer; from tissue; host or cells: spinal cord of male Sprague-Dawley rats (membranes)
Procedure: Male Sprague-Dawley rats with body weight between 250 to 350 g were used. For binding assays the rats were decapitated under anesthesia and the spinal cord was removed and disrupted using a Polytron tissue homogenizer in ice cold buffer containing 5 mM KCl, 5.8 mM NaCl, 0.75 mM CaCl2, 2 mM MgCl2, 320 mM sucrose, 10 mM Hepes, pH 8.6 (Szallasi and Blunberg, 1992; 1993). In competition experiments, the membranes were incubated at 37° C. for 60 min with [^3H]RTX (0.4 nM) and with increasing concentrations of test compounds in the range from 0.1 nM to 3 μM. Non-specific binding was evaluated in the presence of 1 μM RTX. Saturation and competition studies were analyzed with the Ligand program (Bradford, 1976; Munson and Rodbard, 1980).
Compounds 6a-6m displaced [^3H]RTX from its binding site in rat spinal cord membranes at low concentrations, as indicated by the Ki values reported in Table 1.

T2 sequence (O35433 whole entry): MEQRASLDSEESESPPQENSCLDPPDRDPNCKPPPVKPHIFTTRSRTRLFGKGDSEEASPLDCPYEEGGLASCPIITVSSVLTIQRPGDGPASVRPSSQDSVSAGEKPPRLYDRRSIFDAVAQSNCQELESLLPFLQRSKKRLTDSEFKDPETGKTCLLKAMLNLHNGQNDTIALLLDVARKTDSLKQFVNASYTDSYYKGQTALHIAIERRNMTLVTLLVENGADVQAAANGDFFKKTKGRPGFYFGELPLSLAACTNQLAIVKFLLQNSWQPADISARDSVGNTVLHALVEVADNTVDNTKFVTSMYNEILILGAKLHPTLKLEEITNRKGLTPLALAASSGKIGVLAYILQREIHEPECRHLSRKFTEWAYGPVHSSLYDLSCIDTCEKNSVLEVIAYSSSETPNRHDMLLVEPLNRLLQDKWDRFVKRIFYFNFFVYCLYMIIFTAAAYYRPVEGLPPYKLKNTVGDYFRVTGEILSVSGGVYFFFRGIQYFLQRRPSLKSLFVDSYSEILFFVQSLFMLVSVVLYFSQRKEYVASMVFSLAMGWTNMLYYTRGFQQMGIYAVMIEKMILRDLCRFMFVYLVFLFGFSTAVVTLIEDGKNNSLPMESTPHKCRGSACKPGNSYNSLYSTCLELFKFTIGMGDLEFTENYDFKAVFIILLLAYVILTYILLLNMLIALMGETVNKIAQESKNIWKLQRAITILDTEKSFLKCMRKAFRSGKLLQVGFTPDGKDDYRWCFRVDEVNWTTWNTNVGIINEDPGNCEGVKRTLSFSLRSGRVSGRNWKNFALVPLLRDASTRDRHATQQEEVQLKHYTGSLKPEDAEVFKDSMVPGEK
T1 sequence (O35433 whole entry): as above

IC50 [3] | Ki [6] | Structure (SMILES) | other results
– | – | O=C(Nc1ccccc1Br)N[C@@H]1CCN(c2ccc(C(F)(F)F)cn2)C1 [SB-705498, reference compound] | IC50 [1]: 20300 nM; Pharmacokinetics in Rat Oral t1/2 [2]: 180 ^Ref. 8 min
53 nM | – | COc1cc(CNC(=O)NCc2ccc(C(F)(F)F)cc2)c(Br)cc1OC[C@H](O)CO [(R)-(−)6d, 1-[4-((R)-(−)-2,3-dihydroxypropoxy)-2-bromo-5-methoxybenzyl]-3-[4-(trifluoromethyl)-benzyl]urea] | half-life [4]: 4.43 h
10.2 nM | 60 nM | COc1cc(CNC(=O)NCc2ccc(C(F)(F)F)cc2)c(Cl)cc1OCC(O)CO (racemic) [Compound 6c, 1-[4-(2,3-Dihydroxypropoxy)-2-chloro-5-methoxybenzyl]-3-[4-(trifluoromethyl)-benzyl]urea] | IC50 [1]: 52000 nM; % of inhibition of the pro-allodinic effect of capsaicin [5]: 53.1%; half-life [4]: 1.3 h
> 1000 nM | 273 nM | COc1cc(CNC(=O)NCc2ccc(C(F)(F)F)cc2)c(-c2ccccc2)cc1OCC(O)CO (stereo not shown) [Compound 6i, 1-[4-(2,3-dihydroxypropoxy)-2-phenyl-5-methoxybenzyl]-3-[4-(trifluoromethyl)-benzyl]urea] | –
> 1000 nM | 172 nM | COc1cc(CNC(=O)NCc2ccc(C(F)(F)F)cc2)c(-c2cccnc2)cc1OCC(O)CO (stereo not shown) [Compound 6l, 1-[4-(2,3-dihydroxypropoxy)-2-(pyridin-3-yl)-5-methoxybenzyl]-3-[4-(trifluoromethyl)-benzyl]urea] | –
500 nM | 253 nM | COc1cc(CNC(=O)NCc2ccc(C(C)(C)C)cc2)c(Cl)cc1OCCCO [Compound 6f] | –
> 1000 nM | – | COc1cc(CNC(=O)NCc2ccc(C(F)(F)F)cc2)c(Cl)cc1OC[C@@H](O)CO [(S)-(+)6c] | –
859 nM | 175 nM | COc1cc(CNC(=O)NCc2ccc(C(C)(C)C)cc2)c(Cl)cc1OCCO [Compound 6a, 1-[4-(2-hydroxyethoxy)-2-chloro-5-methoxybenzyl]-3-[4-(tert-butyl)-benzyl]urea] | –
119 nM | 150 nM | COc1cc(CNC(=O)NCc2ccc(C(F)(F)F)cc2)c(Br)cc1OCCO [Compound 6h, 1-[4-(2-Hydroxyethoxy)-2-bromo-5-methoxybenzyl]-3-[4-(trifluoromethyl)-benzyl]urea] | –
> 1000 nM | – | COc1cc(CNC(=O)NCc2ccc(C(F)(F)F)cc2)c(Br)cc1OC[C@@H](O)CO [(S)-(+)6d] | –
164 nM | > 1000 nM | COc1cc(CNC(=O)NCc2ccc(C(F)(F)F)cc2)c(Cl)cc1OCCO [Compound 6g, 1-[4-(2-hydroxyethoxy)-2-chloro-5-methoxybenzyl]-3-[4-(trifluoromethyl)-benzyl]urea] | –
7 nM | – | COc1cc(CNC(=O)NCc2ccc(C(F)(F)F)cc2)c(Cl)cc1OC[C@H](O)CO [(R)-(−)6c, 1-[4-((R)-(−)-2,3-dihydroxypropoxy)-2-chloro-5-methoxybenzyl]-3-[4-(trifluoromethyl)-benzyl]urea] | half-life [4]: 7.7 h
> 1000 nM | > 1000 nM | COc1cc(CNC(=O)NCc2ccc(C(F)(F)F)cc2)c(Cl)cc1OCCCO [Compound 6e] | –
80 nM | 86 nM | COc1cc(CNC(=O)NCc2ccc(C(F)(F)F)cc2)c(Br)cc1OCC(O)CO (racemic) [Compound 6d, 1-[4-(2,3-Dihydroxypropoxy)-2-bromo-5-methoxybenzyl]-3-[4-(trifluoromethyl)-benzyl]urea] | IC50 [1]: 70000 nM; % of inhibition of the pro-allodinic effect of capsaicin [5]: 47.9%; half-life [4]: 1.08 h
– | 117 nM | COc1cc(CNC(=O)NCc2ccc(C(F)(F)F)cc2)c(-c2ccc(Cl)cc2)cc1OC[C@H](O)CO [Compound 6m, 1-[4-(2,3-dihydroxypropoxy)-2-(4-chloro)phenyl-5-methoxybenzyl]-3-[4-(trifluoromethyl)-benzyl]urea] | melting point: 174 °C
